Test results reported in PubChem BioAssay AID179 (DTP/NCI, 2004).
Active and inactive are the calls of the source.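 The calls were made as follows: active = compounds giving half or more protection of infected cells from virus-caused growth loss, again on retest; inactive = the rest.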 Where a SMILES comes first, the peptide text is derived from it. The star is where a group is joined. Boc = CC(C)(C)OC(=O)*; Bn = c1ccc(C*)cc1

System: CEM cells HIV-1 protection, formazan growth assay
Assay: NCI AIDS Antiviral Assay
Settings: for IC50: measured here: growth of uninfected CEM cells
Method in brief: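 Steps: treat uninfected and HIV-1-infected human CEM cells at five drug levels; quantify growth by soluble formazan; retest any compound reaching 50% protection; classify actives from the retest.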

SMILES | EC50 [µM] | IC50 [µM] | outcome
CCCNc1c(Cl)cc(Cl)c2[nH]c3ccccc3c(=O)c12 | > 200 | 23.4 | –
Cc1cc(=O)c2c([nH]1)c1c(c3[nH]c(C)cc(=O)c32)Oc2ccccc2O1 | > 129 | 93.3 | –
CN1C(=O)C(C)(C)C(=O)c2ccccc21 | > 200 | > 200 | –
CCCCC(CCCCCC(CCCC)C1NC(C)Cc2cc(OC)c(OC)cc21)C1NC(C)Cc2cc(OC)c(OC)cc21 (stereo not given) | > 200 | 0.447 | –
COC(=O)C(CC(C)C)NC(=O)C(C)NC(=O)C(Cc1ccc(OCc2ccccc2)cc1)NC(=O)C(COCc1ccccc1)NC(=O)OC(C)(C)C (stereo not given) (Boc-S(Bn)Y(Bn)AL-OMe; configuration not given here) | > 200 | 83.2 | –
Cc1ccc(N=C2N=C(N3CC(C)OC(C)C3)c3ccccc32)cc1 (stereo not given) | > 107 | 26.3 | –
CCOC(=O)/C(=C\c1ccc(C#N)cc1)C(C)=O | > 148 | 77.6 | –
Cc1nnc(NS(=O)(=O)c2ccc(N=Nc3cc(N=Nc4ccc(S(=O)(=O)Nc5nnc(C)s5)cc4)c4c(NC(=O)C(Cl)Cl)cccc4c3OC(=O)C(Cl)Cl)cc2)s1 (tested in a mixture with another compound) | – | – | inactive
CN1CCc2c(sc3nc(Nc4ccccc4)n(N)c(=O)c23)C1 | > 200 | 93.3 | –
O=C(NCCCNCCCNC(=O)c1cc(-c2ccccc2)nc2ccccc12)c1cc(-c2ccccc2)nc2ccccc12 | > 200 | 2.82 | –
Cn1c(N)c(-c2c3ccccc3nc3ccccc23)c(=O)n(C)c1=O | > 40.7 | > 40.7 | –
CC(=O)OC[C@]12[C@H](OC(C)=O)[C@H](OC(C)=O)[C@@H]3C(OC(C)=O)[C@@]14OC3(C)COC(=O)c1cccnc1CCC(C)C(=O)OC([C@H](OC(C)=O)[C@@H]2OC(=O)c1ccccc1)[C@]4(C)O (stereo not given in full) | > 38.9 | > 38.9 | –
N#CC(/C(=N\NC(=O)c1ccncc1)C(=O)Nc1ccc([N+](=O)[O-])cc1[N+](=O)[O-])c1nc(-c2ccc(Br)cc2)cs1 (stereo not given) | > 389 | > 389 | –
O/N=C1\C(=C\c2ccc3c(c2)OCCO3)CCCC1C(NO)c1ccc2c(c1)OCCO2 (stereo not given) | > 16.6 | > 16.6 | –
CCCCCCc1ccc(O)cc1O | > 200 | 74.1 | –
O=C1N2Cc3c4ccc5c3CN3C(=O)N6Cc7c(ccc(c7CN1C6(c1ccccc1)C23c1ccccc1)OCCOCCOc1cc(Br)c(Br)cc1OCCOCCO4)OCCOCCOc1cc(Br)c(Br)cc1OCCOCCO5 (stereo not given) | > 0.55 | > 0.55 | –
O=S1(=O)CC#CC[C@@H](CO)[C@@H](CO)CC#CC1 | – | – | inactive
CC1(CO)NC(C(=O)O)Cc2c1[nH]c1ccccc21 (stereo not given) | > 200 | > 200 | –
CCCCCCCCCCCCCCCC=C(c1cc(Br)cc(C(=O)O)c1OC)c1cc(Br)cc(C(=O)O)c1OC | > 1070 | 24 | –
C=C1CC(C)(COc2ccc3c(C)c(C)c(=O)oc3c2C)OC1=O (stereo not given) | > 2 | 0.891 | –
Cc1cccc2c1C(=O)[C@@](C)([C@]1(C)Nc3cccc(C)c3C1=O)N2 | > 200 | > 200 | –
COC(=O)c1cc(C(=O)c2cc(Br)c(OC)c(C(=O)OC)c2)cc(Br)c1OC | > 200 | 67.6 | –
O=C(OCc1ccccc1)N1CC[C@@H](O)[C@H]1CO | > 200 | > 200 | –
O=S(=O)(OCCSS(=O)(=O)c1ccccc1)c1ccccc1 | > 437 | > 437 | –
Cc1cc(C)nc(NS(=O)(=O)c2ccc(NNC(=O)c3cccc4c(=O)c5ccccc5[nH]c34)cc2)n1 | > 200 | 31.6 | –
COC(=O)c1cc2c(=O)n(C)c3ccccc3n2c1C(=O)OC | > 56.2 | 32.4 | –
CC(C)CCC[C@@H](C)C1CCC2[C@@H]3CCC4C[C@H](CCC=C(c5cc(Cl)c(O)c(C(=O)O)c5)c5cc(Cl)c(O)c(C(=O)O)c5)CC[C@]4(C)C3CC[C@@]21C (stereo not given in full) | 35.5 | > 200 | –
CC1=NC(C)CNC(C)(C)CC(C)=NC(C)CNC(C)(C)C1 (stereo not given) | > 200 | > 200 | –
Brc1ccccc2cc(-c3ccccc3)nc1-2 | – | – | inactive
